Read-outs that look alike come from different tables or passages of the source.
Columns and labels:
[1] = biological target: recombinant human α5β1 integrin (Homo sapiens, UniProt P05556+P08648); experiment: In vitro binding assay (a): inhibition of binding of α5β1 integrin to a fragment of human fibronectin (Fn9-10), Origen electrochemiluminescence; details: geometric mean of the measured IC50 values; n given below each value
Text: The assay determined the ability of compounds to inhibit binding of α5β1 integrin to a cognate ligand, a fragment of human fibronectin. The assay used Origen technology (IGEN International) to measure the compound activity. Briefly, α5β1 integrin was coated onto epoxy-paramagnetic beads (Dynal Biotech UK, Bromborough, Wirral, CH62 3QL, UK, Catalogue No 140.11) and biotinylated-fibronectin ligand was coupled to strepatividin labeled Tag-NHS-Ester (BioVeris Corporation, Witney, Oxfordshire, OX28 4GE, UK, Catalogue No 110034). The ruthenium-labeled tag emits an electrochemiluminescence signal upon stimulation which is detected by the Origen reader. Thus, interaction of integrin and ligand causes association of bead and tag, and the resulting electrochemiluminescence signal reflects the level of integrin interaction with fibronectin.
20 μg of recombinant human α5β1 was coated onto 4×10(7) epoxy-paramagnetic beads according to manufacturers instructions at 4° C. for 24 hours. Integrin coating and corresponding activity was subsequently measured for each batch but typically, 25 ng of coated protein was used per assay well.
A DNA fragment encoding the domains 9-10 (amino-acids 1325-1509) of human fibronectin (Swiss-Prot Accession No. P02751) was isolated from cDNA libraries using standard molecular biology and PCR cloning techniques. The cDNA fragment was sub-cloned into a pT73.3 expression vector containing a GST-epitope tag (developed at AstraZeneca; Bagnall et al., Protein Expression and Purification, 2003, 27: 1-11). Following expression in E. coli, the expressed protein, termed Fn9-10, was purified using the GST-tag using standard purification techniques. The recombinant Fn9-10 was subsequently biotinylated using a EZ-link Sulfo-NHS-LC-Biotinylation kit (Perbio Science UK Ltd., Cramlington, Northumberland, NE231WA, UK, Catalogue No. 21335) and made to give a final concentration of approximately 1 mg/mil. Tag-NHS-Ester was labeled with streptavidin by incubation at room temperature following manufacturers instructions and buffer-exchanged into PBS to give a concentration of 0.5 mg/ml. Immediately prior to the assay, biotinylated-Fn9-10 and Streptavidin-labeled Tag were diluted in Assay Buffer to give a final concentrations of 0.6 ug/ml and 1.5 ug/ml respectively. The Fn9-10 and Tag solutions were then mixed together in equal volumes and incubated on ice for at least 30 minutes prior to the assay.
Test compounds were prepared as 10 mM stock solutions in DMSO (Sigma-Aldrich Company Ltd, Gillingham, Dorset SP8 4XT Catalogue No. 154938) and serially diluted with 4% DMSO to give a range of test concentrations at ×4 required final concentration. Aliquots (20 μl) of each compound dilution were placed into each well of a 384-well round bottomed polypropylene plate (Matrix Technologies, Wilmslow, Cheshire, SK9 3LP, Catalogue No. 4340 384). Each plate also contained control wells: maximum signal was created using wells containing 20 μl of 4% DMSO, and minimum signal corresponding to no binding was created using wells containing 20 μl of 80 mM EDTA (Sigma Catalogue No. E7889).
For the assay, 25 ng (20 ul) of a5b1-bead suspension and […] of the Fn9-10/Tag pre-incubated solution were added to each well containing 20 μl of compound or control solution. Assay plates were then incubated at room temperature for a minimum of 6 hours before being analysed on an Origen plate reader. […]

[2] = test system: α5β1 integrin mediated adhesion of K562 cells; experiment: In vitro cell adhesion assay (b): inhibition of α5β1 integrin mediated adhesion of K562 cells to fibronectin fragment Fn9-10; format: cell-based, human
Text: The assay determined the ability of compounds to inhibit the α5β1 integrin mediated adhesion of K562 cells to the ligand, a fragment of human fibronectin. The human K562 erythroleukaemia cell line (LGC Promochem, Teddington, Middlesex, UK, Catalogue No. CCL-243) was routinely maintained in RPMI 1640 medium (Sigma-Aldrich Company Ltd, Gillingham, Dorset SP8 4XT, Catalogue No. R0883) containing 10% heat-inactivated foetal calf serum (PAA lab GmbH, Pasching, Austria Catalogue No. PAA-A15-043) and 1% glutamax-1 (Invitrogen Ltd. Paisley, UK Catalogue No. 35050-038) at 37° C. with 5% CO2 at densities between 1×10^5 and 1×10^6 cells/ml.
A DNA fragment encoding the domains 9-10 (amino-acids 1325-1509) of human fibronectin (Swiss-Prot Accession No. P02751) was isolated from cDNA libraries using standard molecular biology and PCR cloning techniques. The cDNA fragment was sub-cloned into a pT7#3.3 expression vector containing a GST-epitope tag (developed at AstraZeneca; Bagnall et al., Protein Expression and Purification, 2003, 27: 1-11), and the fragment termed Fn9-10. Following expression in E. coli, the expressed protein was purified using the GST-tag using standard purification techniques.
For adhesion assay, a 96-well flat bottomed plate (Greiner Bio one ltd., Gloucester GL10 3SX Catalogue No. 655101) was coated overnight at 4° C. with 100 μl of 20 μg/ml Fn9-10 ligand in Dulbecco's PBS (Gibco#14190-94). The plate was then washed twice with 200 μl of PBS and blocked with 100 μl of 3% BSA (SigmaA7888) in PBS for 1 hour at 37° C. The plates were then washed again 3 times with 200 μl of PBS and left empty.
Test compounds were prepared as 10 mM stock solutions in DMSO (Sigma-Aldrich Company Ltd, Gillingham, Dorset SP8 4XT Catalogue No. 154938) and serially diluted with HBSS (Hanks Buffered Salt solution (Gibco Catalogue No. 14170-088)/2% DMSO to give a range of test concentrations at twice required final concentration. Aliquots (50 μl) of each compound dilution were placed into each well of the Fn9-10 coated plates. Each plate also contained control wells: maximum adhesion signal was created using wells containing 50 μl HBSS/2% DMSO, and minimum signal corresponding to no adhesion was created using wells containing 50 μl HBSS/2% DMSO/20 mM EDTA (Sigma Catalogue No. E7889).
The K562 cells were cultured to 1×10^6 cells/ml, and each culture suspension pooled. Cells were centrifuged at 1200 rpm for 2 mins, and the pellets washed with HBSS followed by HBSS/50 mM HEPES (Sigma Catalogue No. H0887). Cell pellets were pooled and re-suspended in HBSS/0.4 mM manganese chloride/50 mM HEPES (MnCl; Sigma Catalogue No. M1787) to give a final concentration of 4×10^6 cells/ml.
The assay was initiated by the addition of 50 μl of cell suspension into each coated well (200,000 cells/well), thus resulting in final desired compound concentration and a final MnCl concentration of 0.2 mM. The plates were incubated for 45 minutes at 37° C. 5% CO2. After this time, the solution was flicked off as waste, and the remaining cell layer carefully washed twice with 200 μl of PBS, and then fixed with 200 μl of 100% ethanol for 30 minutes.
After fixation, the ethanol was flicked off to waste and 100 μl of 0.1% Crystal violet stain was added to each well, and incubated at ambient temperature for 15 minutes. Excess stain was removed by rinsing 3 times under cold slow running water. The plates were blotted over tissue then solubilised by adding 50 μl of 1% Triton X100 (Sigma Catalogue No. T9284) and shaking at 500 rpm for 30 mins on plate shaker. Finally, 100 μl of deionised water was added to each well and the absorbance was determined at 590 nm on a spectrophotometer. The minimum value was subtracted from all values, and the absorbance signal was plotted against compound concentration to generate IC50 data.

[3] = Homo sapiens, K562, geometric mean of the measured IC50 values, n given below each value, read-out: Adhesion Assay (b) IC50

recombinant human α5β1 integrin, sequence (P08648 42-894 limits assumed): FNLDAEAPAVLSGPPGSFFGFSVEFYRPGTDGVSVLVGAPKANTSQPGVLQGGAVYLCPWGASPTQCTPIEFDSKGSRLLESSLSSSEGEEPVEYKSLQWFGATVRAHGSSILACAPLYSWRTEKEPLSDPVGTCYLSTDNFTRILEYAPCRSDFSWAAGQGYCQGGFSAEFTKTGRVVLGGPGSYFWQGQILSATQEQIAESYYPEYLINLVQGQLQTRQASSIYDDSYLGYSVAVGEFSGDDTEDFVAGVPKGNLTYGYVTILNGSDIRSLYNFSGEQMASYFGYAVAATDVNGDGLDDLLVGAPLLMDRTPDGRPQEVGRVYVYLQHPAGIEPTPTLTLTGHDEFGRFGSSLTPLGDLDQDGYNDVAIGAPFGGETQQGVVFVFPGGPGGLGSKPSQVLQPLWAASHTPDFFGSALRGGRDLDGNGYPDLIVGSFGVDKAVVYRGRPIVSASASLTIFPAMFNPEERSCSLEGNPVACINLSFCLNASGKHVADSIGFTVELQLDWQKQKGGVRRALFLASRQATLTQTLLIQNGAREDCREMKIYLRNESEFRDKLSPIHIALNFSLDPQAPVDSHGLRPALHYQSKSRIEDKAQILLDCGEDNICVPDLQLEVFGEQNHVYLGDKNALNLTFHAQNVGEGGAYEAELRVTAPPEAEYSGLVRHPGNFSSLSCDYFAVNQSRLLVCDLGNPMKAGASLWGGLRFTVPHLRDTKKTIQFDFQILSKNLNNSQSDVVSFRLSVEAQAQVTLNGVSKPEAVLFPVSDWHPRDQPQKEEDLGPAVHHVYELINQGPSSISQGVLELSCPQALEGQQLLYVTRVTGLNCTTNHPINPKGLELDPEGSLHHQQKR
recombinant human α5β1 integrin, sequence (P08648 895-1049 partner limits assumed): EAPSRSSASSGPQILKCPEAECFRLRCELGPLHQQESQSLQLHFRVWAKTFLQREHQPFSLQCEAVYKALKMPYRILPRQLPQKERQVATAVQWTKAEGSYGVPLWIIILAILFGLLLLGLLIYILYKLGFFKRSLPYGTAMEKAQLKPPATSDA
recombinant human α5β1 integrin, sequence (P05556 21-798): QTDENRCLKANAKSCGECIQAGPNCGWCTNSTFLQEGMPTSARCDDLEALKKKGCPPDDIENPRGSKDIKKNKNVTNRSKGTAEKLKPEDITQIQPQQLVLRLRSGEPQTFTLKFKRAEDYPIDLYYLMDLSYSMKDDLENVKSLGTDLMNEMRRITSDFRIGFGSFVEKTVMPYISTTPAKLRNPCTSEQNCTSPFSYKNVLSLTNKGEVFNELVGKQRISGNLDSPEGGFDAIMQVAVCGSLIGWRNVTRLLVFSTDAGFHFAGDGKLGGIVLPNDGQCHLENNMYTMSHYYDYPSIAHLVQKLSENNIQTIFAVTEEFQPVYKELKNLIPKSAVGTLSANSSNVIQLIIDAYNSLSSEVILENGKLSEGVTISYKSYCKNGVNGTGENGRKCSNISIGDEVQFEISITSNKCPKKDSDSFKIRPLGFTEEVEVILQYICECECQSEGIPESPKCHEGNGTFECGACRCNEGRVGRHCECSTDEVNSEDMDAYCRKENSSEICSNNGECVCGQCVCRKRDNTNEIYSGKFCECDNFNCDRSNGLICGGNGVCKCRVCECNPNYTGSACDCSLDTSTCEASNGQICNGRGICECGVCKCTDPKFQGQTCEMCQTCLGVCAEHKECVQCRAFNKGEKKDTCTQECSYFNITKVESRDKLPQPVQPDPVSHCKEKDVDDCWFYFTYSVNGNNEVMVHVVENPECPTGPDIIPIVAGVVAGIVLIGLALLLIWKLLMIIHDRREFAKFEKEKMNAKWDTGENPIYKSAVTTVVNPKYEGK

For `Cc1noc(C)c1C(=O)N[C@@H](Cc1ccc(CCCc2ccc3c(n2)NCCC3)s1)C(=O)O` [Example 2, N-[(3,5-dimethylisoxazol-4-yl)carbonyl]-3-{5-[3-(5,6,7,8-tetrahydro-1,8-naphthyridin-2-yl)propyl]thiophen-2-yl}-L-alanine], the IC50 [1] was < 1 nM and the IC50 [2, 3] was 12 nM.

Work on `CNc1cccc(CCCc2ccc(C[C@H](NC(=O)c3c(C)noc3C)C(=O)O)s2)n1` [Example 1.1, N-[(3,5-dimethylisoxazol-4-yl)carbonyl]-3-(5-{3-[6-(methylamino)pyridin-2-yl]propyl}thiophen-2-yl)-L-alanine] yielded an IC50 [1] of 4 nM and an IC50 [2, 3] of 27 nM.

`O=C(N[C@@H](Cc1ccc(CCCc2ccc3c(n2)NCCC3)s1)C(=O)O)c1c(Cl)cncc1Cl` [Example 3, N-(3,5-dichloroisonicotinoyl)-3-{5-[3-(5,6,7,8-tetrahydro-1,8-naphthyridin-2-yl)propyl]-thiophen-2-yl}-L-alanine] was tested, and the IC50 [1] was 0.3 nM, the IC50 [2, 3] was < 4 nM and the IC50 ([2]; Homo sapiens, K562, single determinations listed in brackets under the geometric mean (n = 3), read-out: Adhesion Assay (b) IC50, individual measured values) was 5 nM. The IC50 ([2]; single determinations listed in brackets under the geometric mean (n = 3), read-out: Adhesion Assay (b) IC50, individual measured values) was < 3 nM.

With `O=C(N[C@@H](Cc1ccc(OCCc2ccc3c(n2)NCCC3)s1)C(=O)O)c1c(Cl)cncc1Cl` [Example 4, N-(3,5-dichloroisonicotinoyl)-3-{5-[2-(5,6,7,8-tetrahydro-1,8-naphthyridin-2-yl)ethoxy]-2-thienyl}-L-alanine] the IC50 [1] was < 1 nM and the IC50 [2, 3] was < 3 nM.

For `CNc1cccc(CCCc2ccc(C[C@H](NC(=O)c3c(Cl)cncc3Cl)C(=O)O)s2)n1` [Example 1.2, N-[(3,5-dichloropyridin-4-yl)carbonyl]-3-(5-{3-[6-(methylamino)pyridin-2-yl]propyl}thiophen-2-yl)-L-alanine], the IC50 [1] was 1 nM and the IC50 [2, 3] was 8 nM.
